Reference: US6989387B2, “Nitro and amino substituted topoisomerase agents” (Rutgers, The State University of New Jersey, priority 2002, dated 2006)
Read-outs that look alike come from different tables or passages of the source.

Key:
CPT-K5 cells = assay: Test B: MTT-microtiter plate tetrazolinium cytotoxicity assay, CPT-K5; assay type: cell-based; conditions: Homo sapiens, CPT-K5, 96 h, read-out: Cytotoxicity (IC50; μM) CPT-K5
Description: (§1) The cytotoxicity was determined using the MTT-microtiter plate tetrazolinium cytotoxicity assay (MTA—See Mosmann, T., J. Immunol. Methods 1983, 65, 55–63; Carmichael, J., et al., Cancer Res. 1987, 47, 936–942; and Denizot, F., et al., J. Immunol. Methods 1986, 89, 271–277). […] The cytotoxicity assay was performed using 96-well microtiter plates. Cells were grown in suspension at 37° C. in 5% CO2 and maintained by regular passage in RPMI medium supplemented with 10% heat- inactivated fetal bovine serum, L-glutamine (2 mM), penicillin (100 U/mL), and streptomycin (0.1 mg/mL). […] For determination of IC50, cells were exposed continuously for 4 days to varying concentrations of drug, and MTT assays were performed at the end of the fourth day. […] All assays were performed at least twice in 6 replicate wells.

human topoisomerase I = molecular target: T1, human topoisomerase I (Homo sapiens, UniProt P11387); assay: Test A: topoisomerase I-mediated DNA cleavage assay; assay type: biochemical; conditions: relative effective concentration, relative to topotecan = 1, producing the same cleavage of plasmid DNA in presence of human TOP1
T1 construct: unnamed fusion partner (recombinant fusion protein, T7 expression system); made in house; host or cells: E. coli
T1 sequence (P11387 1-765): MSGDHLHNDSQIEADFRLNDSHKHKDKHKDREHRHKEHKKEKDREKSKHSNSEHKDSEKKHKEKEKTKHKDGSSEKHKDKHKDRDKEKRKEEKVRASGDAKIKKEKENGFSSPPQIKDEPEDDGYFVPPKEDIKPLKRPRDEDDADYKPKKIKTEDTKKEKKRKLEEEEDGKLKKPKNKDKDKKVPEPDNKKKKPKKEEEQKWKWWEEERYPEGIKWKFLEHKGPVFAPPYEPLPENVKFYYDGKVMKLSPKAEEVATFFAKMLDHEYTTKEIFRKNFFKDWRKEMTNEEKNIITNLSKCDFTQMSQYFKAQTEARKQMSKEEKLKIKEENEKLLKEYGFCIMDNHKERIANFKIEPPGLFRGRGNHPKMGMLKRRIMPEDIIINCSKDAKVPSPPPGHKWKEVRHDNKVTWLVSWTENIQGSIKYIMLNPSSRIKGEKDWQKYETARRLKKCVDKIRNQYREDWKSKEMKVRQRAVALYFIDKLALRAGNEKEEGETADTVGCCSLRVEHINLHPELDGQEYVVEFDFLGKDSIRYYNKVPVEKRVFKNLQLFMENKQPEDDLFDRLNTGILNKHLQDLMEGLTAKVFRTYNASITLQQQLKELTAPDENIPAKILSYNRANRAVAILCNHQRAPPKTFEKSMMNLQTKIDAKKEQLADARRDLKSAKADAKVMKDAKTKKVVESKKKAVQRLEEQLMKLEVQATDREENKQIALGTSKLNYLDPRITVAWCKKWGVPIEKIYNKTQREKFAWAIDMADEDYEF
Description: Test A. Topoisomerase-Mediated DNA Cleavage Assays
Human topoisomerase I was expressed in E. Coli and isolated as a recombinant fusion protein using a T7 expression system as described by Gatto, B., et al., Cancer Res. 1996, 56, 2795–2800. Plasmid YepG was purified by the alkali lysis method followed by phenol deproteination and CsCl/ethidium isopycnic centrifugation method as described by Maniatis, T., et al., J. Molecular Cloning, a Laboratory Manual; Cold Spring Harbor Laboratory: Cold Spring Harbor, N.Y. 1982; pp 149–185. The end-labeling of the plasmid was accomplished by digestion with a restriction enzyme followed by end-filling with Klenow polymerase as previously described by Tewey, K. M., et al., Science 1984, 226, 466–468. The cleavage assays were performed as previously reported (see Gatto, B., et al., Cancer Res. 1996, 56, 2795–2800; and Wang, H., et al., Biochemistry 2001, 40; 3316–3323). The drug and the DNA in presence of topoisomerase I was incubated for 30 minutes at 37° C. The reactions were terminated by the addition of 5 μl of 5% SDS and 1 mg/ml […] with an additional 1 hour of incubation at 37° C. Samples were then alkali denatured by the addition of NaOH, EDTA, sucrose, and bromophenol blue to final concentrations of 75 mM, 2.5%, and 0.05 mg/ml, respectively, prior to loading onto a neutral agarose gel. After development of the gels, typically 24-hour exposure was used to obtain autoradiograms outlining the extent of DNA fragmentation.

RPMI8402 cells = assay: Test B: MTT-microtiter plate tetrazolinium cytotoxicity assay, RPMI8402; assay type: cell-based, human; conditions: RPMI 8402, 96 h, read-out: Cytotoxicity (IC50; μM) RPMI8402
Description: as §1

SMILES | IC50 (CPT-K5 cells) | TOP1-mediated DNA Cleavage (REC) (human topoisomerase I) | IC50 (RPMI8402 cells; Homo sapiens) | IC50 (RPMI8402 cells; human lymphoblast RPMI8402, 4 days of continuous drug exposure, MTT) | melting point
CC[C@@]1(O)C(=O)OCc2c1cc1n(c2=O)Cc2cc3c(CN(C)C)c(O)ccc3nc2-1 [Topotecan, reference compound] | > 50 µM | 1 | 0.012 µM |  | 
CN(C)CCn1c(=O)c2ccccc2c2cnc3cc4c(cc3c21)OCO4 [Compound 3, 2,3-Methylenedioxy-5-[2-(N,N-dimethylamino)ethyl]-5H-dibenzo[c,h]1,6-naphthyridin-6-one, reference compound] | 0.95 µM | 6 | 0.06 µM |  | 
CC[C@@]1(O)C(=O)OCc2c1cc1n(c2=O)Cc2cc3ccccc3nc2-1 [Camptothecin, reference compound] |  | 0.5 |  | 0.005 µM | 
CN(C)CCn1c(=O)c2cccc(N)c2c2cnc3cc4c(cc3c21)OCO4 [Compound 6b, 10-Amino-2,3-methylenedioxy-5-[2-(N,N-dimethylamino)ethyl]-5H-dibenzo[c,h][1,6]naphthyridin-6-one] | 3.2 µM | 15 | 0.34 µM |  | 223 to 224 °C
CN(C)CCn1c(=O)c2ccc([N+](=O)[O-])cc2c2cnc3cc4c(cc3c21)OCO4 [Compound 5a, 9-Nitro-2,3-methylenedioxy-5-[2-(N,N-Dimethylamino)Ethyl]-5H-dibenzo[c,h][1,6]naphthyridin-6-one] | 2.8 µM | 0.1 | 0.002 µM |  | 258 to 259 °C
CN(C)CCn1c(=O)c2cc(N)ccc2c2cnc3cc4c(cc3c21)OCO4 [Compound 4b, 8-Amino-2,3-methylenedioxy-5-[2-(N,N-dimethylamino)ethyl]-5H-dibenzo[c,h][1,6]naphthyridin-6-one] | 0.38 µM | 8.0 | 0.08 µM |  | 245 to 246 °C
CN(C)CCn1c(=O)c2ccc(N)cc2c2cnc3cc4c(cc3c21)OCO4 [Compound 5b, 9-Amino-2,3-methylenedioxy-5-[2-(N,N-dimethylamino)ethyl]-5H-dibenzo[c,h][1,6]naphthyridin-6-one] | 1 µM | 0.5 | 0.025 µM |  | 300 to 301 °C
COc1cc([C@@H]2c3cc4c(cc3[C@@H](O[C@@H]3O[C@@H]5CO[C@@H](c6cccs6)O[C@H]5[C@H](O)[C@H]3O)[C@H]3COC(=O)[C@H]23)OCO4)cc(OC)c1O [VM-26, reference compound] | 0.28 µM | >1000 | 0.22 µM |  | 
CN(C)CCn1c(=O)c2cc([N+](=O)[O-])ccc2c2cnc3cc4c(cc3c21)OCO4 [Compound 4a, 8-Nitro-2,3-methylenedioxy-5-[2-(N,N-dimethylamino)ethyl]-5H-dibenzo[c,h][1,6]naphthyridin-6-one] | 0.33 µM | 0.2 | 0.003 µM |  | 219 to 220 °C
CN(C)CCn1c(=O)c2cccc([N+](=O)[O-])c2c2cnc3cc4c(cc3c21)OCO4 [Compound 6a, 10-Nitro-2,3-methylenedioxy-5-[2-(N,N-dimethylamino)Ethyl]-5H-dibenzo[c,h][1,6]naphthyridin-6-one] | > 10 µM | 1000 | 4.8 µM |  | 189 to 190 °C
